Results reported in ChEMBL document CHEMBL3414447, “Structure-guided design of a series of MCL-1 inhibitors with high affinity and selectivity” (J Med Chem, 2015).
One block for each compound: values may come before it. The source made the active and inactive calls. No cut-off for these calls is given here.

What was measured:
[1] = target: T1, Induced myeloid leukemia cell differentiation protein Mcl-1 (Homo sapiens, UniProt Q07820)
Description: Displacement of fluorescent labeled NOXA peptide from recombinant human MCL1 by fluorescence polarization assay in presence of 1% human serum

[2] = target: T1, Induced myeloid leukemia cell differentiation protein Mcl-1; remark: listed apart in the source
Description: (§1) Displacement of fluorescent labeled NOXA peptide from recombinant human MCL1 by fluorescence polarization assay

[3] = target: T1, Induced myeloid leukemia cell differentiation protein Mcl-1; remark: listed apart in the source
[4] = target: T1, Induced myeloid leukemia cell differentiation protein Mcl-1; remark: listed apart in the source
[5] = target: Albumin (Homo sapiens, UniProt P02768)
Chain of Albumin (P02768 whole entry): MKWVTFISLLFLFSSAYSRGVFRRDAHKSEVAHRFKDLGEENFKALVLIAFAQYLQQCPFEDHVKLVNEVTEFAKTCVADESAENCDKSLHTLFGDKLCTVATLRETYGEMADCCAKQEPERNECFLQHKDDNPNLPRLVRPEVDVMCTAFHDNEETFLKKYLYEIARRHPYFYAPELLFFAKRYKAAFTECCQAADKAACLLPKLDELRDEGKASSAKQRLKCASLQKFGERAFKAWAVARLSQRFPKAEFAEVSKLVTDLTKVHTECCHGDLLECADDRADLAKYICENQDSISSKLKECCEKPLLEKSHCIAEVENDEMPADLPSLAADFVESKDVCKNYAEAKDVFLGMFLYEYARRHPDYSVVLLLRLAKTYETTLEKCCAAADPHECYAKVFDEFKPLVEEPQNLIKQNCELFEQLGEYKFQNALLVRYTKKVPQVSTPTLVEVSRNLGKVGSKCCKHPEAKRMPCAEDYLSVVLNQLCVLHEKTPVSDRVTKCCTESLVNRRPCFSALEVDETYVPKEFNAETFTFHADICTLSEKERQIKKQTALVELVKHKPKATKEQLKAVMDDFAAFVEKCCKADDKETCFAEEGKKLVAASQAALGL
Description: Displacement of probe S1 from recombinant human serum albumin domain 3 after 5 mins by fluorescence polarization assay

[6] = target: T1, Induced myeloid leukemia cell differentiation protein Mcl-1; remark: listed apart in the source
Description: as §1

[7] = target: T1, Induced myeloid leukemia cell differentiation protein Mcl-1; test: Ratio of Ki(app) for MCL1 (unknown origin) by TR-FRET assay in presence of 10% human serum to Ki(app) for MCL1 (unknown origin) by TR-FRET assay in absence of 10% human serum
[8] = target: T1, Induced myeloid leukemia cell differentiation protein Mcl-1; test: Displacement of fluorescent labeled NOXA peptide from recombinant MCL1 (unknown origin) after 15 mins by fluorescence polarization assay
[9] = target: T2, Apoptosis regulator Bcl-2 (Homo sapiens, UniProt P10415); test: Inhibition of BCL-2 (unknown origin) by fluorescence polarization assay
T2 sequence (P10415 whole entry): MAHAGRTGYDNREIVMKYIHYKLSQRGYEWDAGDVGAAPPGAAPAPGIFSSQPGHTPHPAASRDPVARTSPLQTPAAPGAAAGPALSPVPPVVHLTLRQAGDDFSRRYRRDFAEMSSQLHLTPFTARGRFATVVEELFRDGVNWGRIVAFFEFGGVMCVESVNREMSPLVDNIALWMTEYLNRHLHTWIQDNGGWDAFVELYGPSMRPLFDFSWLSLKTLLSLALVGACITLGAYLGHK

[10] = target: T3, Bcl-2-like protein 1 (Homo sapiens, UniProt Q07817); test: Inhibition of BCL-XL (unknown origin) by fluorescence polarization assay
T3 sequence (Q07817 whole entry): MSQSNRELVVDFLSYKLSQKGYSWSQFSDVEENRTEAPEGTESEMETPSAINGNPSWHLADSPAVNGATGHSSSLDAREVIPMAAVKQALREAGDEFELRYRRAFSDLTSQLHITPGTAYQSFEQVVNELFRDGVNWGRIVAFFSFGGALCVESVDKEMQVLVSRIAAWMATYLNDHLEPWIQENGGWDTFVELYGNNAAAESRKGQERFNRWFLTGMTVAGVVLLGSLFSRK

[11] = Fraction unbound in human plasma after 4.5 hrs by equilibrium dialysis method; assay type: ADME, cell-free
[12] = target: T2, Apoptosis regulator Bcl-2
[13] = target: T3, Bcl-2-like protein 1
[14] = target: T1, Induced myeloid leukemia cell differentiation protein Mcl-1; test: Inhibition of MCL-1 in human H929 cells assessed as induction of caspase3/7 activation after 4 hrs by caspase-Glo 3/7 assay in presence of 0.1 to 10% fetal bovine serum; assay type: cell-based
[15] = target: T4, Bcl-2-related protein A1 (Homo sapiens, UniProt Q16548); test: Inhibition of BCL2-A1 (unknown origin) after 1 hr by TR-FRET assay
T4 sequence (Q16548 whole entry): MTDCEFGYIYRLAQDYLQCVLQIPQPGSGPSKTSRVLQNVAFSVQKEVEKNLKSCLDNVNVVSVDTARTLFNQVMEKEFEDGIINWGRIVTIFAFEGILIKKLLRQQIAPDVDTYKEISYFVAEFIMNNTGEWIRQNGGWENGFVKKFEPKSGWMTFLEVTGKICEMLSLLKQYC

[16] = target: T1, Induced myeloid leukemia cell differentiation protein Mcl-1; test: Inhibition of MCL-1 in human BXPC3 cells assessed as reduction of navitoclax EC50 at 20 uM after 72 hrs by CellTiter-Glo assay in presence of 10% fetal bovine serum; assay type: cell-based; settings: BXPC-3
[17] = target: T5, Bcl-2-like protein 2 (Homo sapiens, UniProt Q92843); test: Inhibition of BCL-W (unknown origin) after 1 hr by TR-FRET assay
T5 sequence (Q92843 whole entry): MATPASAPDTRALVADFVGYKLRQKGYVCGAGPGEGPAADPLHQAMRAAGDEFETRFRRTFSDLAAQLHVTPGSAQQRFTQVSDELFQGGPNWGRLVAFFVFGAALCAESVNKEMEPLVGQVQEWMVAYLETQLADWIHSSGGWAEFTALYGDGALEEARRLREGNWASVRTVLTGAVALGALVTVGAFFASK

[18] = target: T1, Induced myeloid leukemia cell differentiation protein Mcl-1; test: Inhibition of MCL-1 in human H929 cells assessed as loss in cell viability after 4 hrs by CellTiter-Glo assay in presence of 0.1 to 10% fetal bovine serum; assay type: cell-based

T1 sequence (Q07820 whole entry): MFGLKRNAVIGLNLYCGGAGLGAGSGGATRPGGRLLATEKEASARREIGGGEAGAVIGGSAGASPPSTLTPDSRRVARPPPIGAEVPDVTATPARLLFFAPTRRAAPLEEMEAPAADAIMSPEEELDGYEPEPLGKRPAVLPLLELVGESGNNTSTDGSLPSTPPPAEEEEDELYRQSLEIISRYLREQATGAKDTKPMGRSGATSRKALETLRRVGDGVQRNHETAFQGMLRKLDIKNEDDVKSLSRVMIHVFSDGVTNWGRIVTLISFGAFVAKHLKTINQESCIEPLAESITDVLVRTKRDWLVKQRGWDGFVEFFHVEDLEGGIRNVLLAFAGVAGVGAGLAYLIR

Ki [1]: 8200 nM | Ki [2]: 160 nM
SMILES: Cc1cccc(-c2cccc3c(CCCOc4cccc5ccccc45)c(C(=O)O)[nH]c23)c1

Ki [1]: 9100 nM | Ki [2]: 150 nM
SMILES: Cc1ccc(-c2cccc3c(CCCOc4cccc5ccccc45)c(C(=O)O)[nH]c23)cc1

Ki [3]: 2.3 nM | Ki [4]: 114 nM
SMILES: Cc1nn(C)c(COc2ccccc2)c1-c1cccc2c(CCCOc3cccc4ccccc34)c(C(=O)O)n(CCN3CCOCC3)c12

Ki [3]: 0.2 nM | Ki [4]: 4.9 nM
SMILES: CCS(=O)(=O)N1CCN(c2ccc(OCc3c(-c4cccc5c(CCCOc6cccc7ccccc67)c(C(=O)O)n(CCN6CCOCC6)c45)c(C)nn3C)cc2)CC1

Ki [1]: 8600 nM | Ki [5]: < 30 nM | Ki [2]: 35 nM
SMILES: Cc1ccccc1-c1cccc2c(CCCOc3cccc4ccccc34)c(C(=O)O)[nH]c12

inhibition [6]: inactive
SMILES: Cc1ccccc1-c1cccc2c(CCCO)c(C(=O)O)[nH]c12

Ki [3]: 0.48 nM | Ki [4]: 12.3 nM
SMILES: Cc1nn(C)c(COc2ccc(N3CCN(S(=O)(=O)N4CCOCC4)CC3)cc2)c1-c1cccc2c(CCCOc3cccc4ccccc34)c(C(=O)O)n(CCN3CCOCC3)c12

Ki [3]: 1.8 nM | Ki [4]: 98 nM
SMILES: CC(=O)N1CCN(c2ccc(OCc3nn(C)c(C)c3-c3cccc4c(CCCOc5cccc6ccccc56)c(C(=O)O)n(Cc5cccnc5)c34)cc2)CC1

Ki [3]: 1.5 nM | Ki [1]: 4 nM | Ki [5]: 1450 nM | Ki [2]: < 10 nM | Ki [4]: 35 nM
SMILES: Cc1nn(C)c(C)c1-c1cccc2c(CCCOc3cccc4ccccc34)c(C(=O)O)n(CCN3CCOCC3)c12

Ki [5]: > 100000 nM | inhibition [6]: inactive
SMILES: O=C(O)c1[nH]c2ccccc2c1CCCO

Ki [1]: 5300 nM | Ki [2]: 130 nM
SMILES: O=C(O)c1[nH]c2c(-c3ccccc3)cccc2c1CCCOc1cccc2ccccc12

Ki [3]: 0.45 nM | Ki [4]: 7.9 nM
SMILES: Cc1nn(C)c(COc2ccc(N3CCN(S(=O)(=O)N(C)C)CC3)cc2)c1-c1cccc2c(CCCOc3cccc4ccccc34)c(C(=O)O)n(CCN3CCOCC3)c12

Ki [3]: 0.31 nM | Ki [4]: 8.8 nM
SMILES: CCCS(=O)(=O)N1CCN(c2ccc(OCc3c(-c4cccc5c(CCCOc6cccc7ccccc67)c(C(=O)O)n(CCN6CCOCC6)c45)c(C)nn3C)cc2)CC1

Ki [3]: 0.24 nM | Ratio Ki(app) [7]: 10 | Ki [4]: 2.7 nM
SMILES: CC(=O)N1CCN(c2ccc(OCc3c(-c4cccc5c(CCCOc6cccc7ccccc67)c(C(=O)O)n(CCN6CCOCC6)c45)c(C)nn3C)cc2)CC1

Ki [3]: 2 nM | Ki [4]: 12 nM
SMILES: CCOC(=O)c1c(CCCOc2cccc3ccccc23)c2cccc(-c3c(C)nn(C)c3COc3ccc(N4CCNCC4)cc3)c2n1CCN1CCOCC1

Ki [8]: 4400 nM | Ki [9]: > 10000 nM | Ki [10]: > 10000 nM
SMILES: O=C(O)c1[nH]c2ccccc2c1CCCCC1CCCCC1

fraction unbound at 4.5 h [11]: < 0.01 | Ki [12]: > 660 nM | Ki [13]: > 660 nM | inhibition [14]: Active | Ki [15]: > 660 nM | fold change (FC) [16]: 45 | Ki [17]: > 660 nM
SMILES: Cc1nn(C)c(COc2ccc(N3CCN(S(C)(=O)=O)CC3)cc2)c1-c1cccc2c(CCCOc3cccc4ccccc34)c(C(=O)O)n(CCN3CCOCC3)c12
inhibition [18]: Active
